# “And” between values parts separate entries of the source, which are not always exact repeats. Equal values may be shown once. Read-outs that look alike come from different tables or passages of the source.
# Assays:
# SPAK–WNK1 interaction = tested on: T1, SPAK–WNK1 interaction; test: SPAK antibody pull-down / co-immunoprecipitation of WNK1 from HEK-293 cell lysates; format: binding, human; settings: Fig S6
# T1 construct: endogenous in cells; host or cells: HEK-293
# Protocol: Supplemental Fig. 6 Evidence that SPAK associates with WNK1, and interaction is disrupted by ZT-1a and its analogs. Non-transfected HEK293 cell lysates were incubated with the RFQV peptide […]
# ZT-1a for 30 min on ice and subjected to SPAK antibody immunoprecipitation. Immunoprecipitates were subjected to immunoblot probed with antibody to total WNK1 and antibody to total SPAK. Left panels: representative immunoblots. Right panels, summarized data quantitated by densitometry (n=3, means ± SEM; **,
# KCC3 pThr1048 = test: Immunoblot of KCC site 2 phosphorylation (KCC3 Thr1048) in HEK-293 cells transfected with FLAG-KCC3; format: cell-based, human; settings: read-out: KCC3 pThr1048 (μM), 50% inhibition, HEK-293, n = 3
# KCC3 pThr991 = test: Immunoblot of KCC site 1 phosphorylation (KCC3 Thr991) in HEK-293 cells transfected with FLAG-KCC3; format: cell-based, human; settings: read-out: KCC3 pThr991 (μM), 50% inhibition, HEK-293, n = 3
# SPAK pSer373 = test: Immunoblot of SPAK/OSR1 p-Ser373/Ser325 in HEK-293 cells; format: cell-based, human; settings: read-out: SPAK pSer373 (μM), 50% inhibition, HEK-293, n = 3
# NKCC1 pThr203/207/212 = test: Immunoblot of NKCC1 p-Thr203/Thr207/Thr212 in HEK-293 cells; format: cell-based, human; settings: read-out: NKCC1 pThr203 (μM), 50% inhibition, HEK-293, n = 3
SMILES,WNK1 co-immunoprecipitated with SPAK (band quantification) (SPAK–WNK1 interaction; 10 uM),WNK1 co-immunoprecipitated with SPAK (band quantification) (SPAK–WNK1 interaction; 30 uM),WNK1 co-immunoprecipitated with SPAK (band quantification) (SPAK–WNK1 interaction; 100 uM),WNK1 co-immunoprecipitated with SPAK (band quantification) (SPAK–WNK1 interaction; 1000 uM),IC50 (KCC3 pThr1048; Iso (isotonic)),IC50 (KCC3 pThr1048; hypo (hypotonic)),IC50 (KCC3 pThr991; Iso (isotonic)),IC50 (KCC3 pThr991; hypo (hypotonic)),IC50 (SPAK pSer373; Iso (isotonic)),IC50 (SPAK pSer373; hypo (hypotonic)),IC50 (NKCC1 pThr203/207/212; Iso (isotonic)),IC50 (NKCC1 pThr203/207/212; hypo (hypotonic))
Cc1cc(C(C#N)c2ccc(Cl)cc2)c(Cl)cc1NC(=O)c1cc(I)cc(I)c1O (stereo not shown) [Closanel],0.416 and 0.33 and 0.3682 and 0.389,0.353 and 0.208 and 0.256 and 0.231,0.179 and 0.139 and 0.1611 and 0.153,0.036 and 0.031 and 0.0232 and 0.027,,,,,,,,
Cc1cc(C(C#N)c2ccc(Cl)cc2)c(Cl)cc1NC(=O)c1ccccc1[N+](=O)[O-] (stereo not shown) [Compound 1e],,,,,> 10 µM,> 10 µM,> 10 µM,> 10 µM,> 10 µM,> 10 µM,> 10 µM,> 10 µM
Cc1cc(C(C#N)c2ccc(Cl)cc2)c(Cl)cc1NC(=O)c1cccc(O)c1O (stereo not shown) [Compound 1i],,,,,> 10 µM,> 10 µM,> 10 µM,> 10 µM,> 10 µM,> 10 µM,> 10 µM,> 10 µM
COc1ccc(Cl)cc1C(=O)Nc1cc(Cl)c(C(C#N)c2ccc(Cl)cc2)cc1C (stereo not shown) [Compound 1j],,,,,> 10 µM,> 10 µM,> 10 µM,> 10 µM,> 10 µM,> 10 µM,> 10 µM,> 10 µM

# — paper PMC6946680, “Modulation of brain cation-Cl^− cotransport via the SPAK kinase inhibitor ZT-1a” (Nature Communications, 2020)
